Measurements from patent US9028858B2 (Coloplast A/S, priority 2003, dated 2015).
Read-outs that look alike come from different tables or passages of the source.

What was measured:
[1] = 1 week
[2] = Effect of buffer (citrate) in swelling medium on degradation of H2O2; conditions: no stabilizer
[3] = 23° C., 8 months, pH 7 without buffer
Method: Samples were β-sterilized at 50 kGy and stored at 23° C. for 8 months.
The results were calculated from 86 separate samples (mean value±standard deviation of mean value) (Table 5.1).

[4] = hydrogen peroxide taken alone
[5] = tested on: 7 different bacterial strains; conditions: for bacterial survival rate, Mean: exposed 60 min.; for surviving bacteria, Mean (% of control): 1% hydrogen peroxide
[6] = Various stabilizers: degradation of H2O2 at pH 4, 5.5 and 7; conditions: no stabilizer, 25 mM citric acid, approx. 1% H2O2
Method: Therefore the investigation of the influence of the pH-value on the stability in our system was included in the study.
24 different kinds of swelling media containing different stabilizers (one without stabilizer) and 3 different pH-values (pH 4, 5.5 and 7) were prepared. […] The concentration of sodium chloride in each of these three swelling media was 0.7% (w/w). Sodium chloride was tested because it could be used as an osmolality increasing agent. […] Two different kinds of material for the stick-pack were used, one with “peel” and one with “non-peel”. […] The irradiation dose was 2*26 kGy.
The stick-pack with “peel” was a laminated material consisting of PETP (12 μm), aluminium (9 μm) and polyethylene peel (polyethylene+10% polybutylene) (70 μm). […] The stick-packs were made out of a stamped area of 13×35 mm that was welded in the longitudinal direction by 1×3 units on a welder. It was welded by 2×2.2 units across in one end of the stick-pack, and in the other end by 4.0 bar, 130° C. and 3.5 s (breakable seal).
The stick-packs were stored for stability testing at 23° C. and 40° C. Samples were taken out after irradiation and after 2 and 4 weeks at 40° C. and 8 and 16 weeks at 23° C.

[7] = initial 0.4%-point H2O2, 80° C., no PEG 2000
[8] = initial 0.8%-point H2O2, 60° C., no PEG 2000
[9] = initial 0.8%-point H2O2, 80° C., no PEG 2000
[10] = initial 1.6%-point H2O2, 60° C., 6% PEG 2000
[11] = initial 1.6%-point H2O2, 60° C., no PEG 2000
[12] = initial 1.6%-point H2O2, 80° C., 6% PEG 2000
[13] = initial 1.6%-point H2O2, 80° C., no PEG 2000

OO [Std H2O2, hydrogen peroxide]
Loss of H2O2 (%/day) [1, 7]: 3.8 %/day
pH after storage [1, 7]: 5.79
%-point H2O2 after storage [1, 8]: 0.75 %-point
Appearance of catheter (0–5; 0 = perfect, 5 = unacceptable) [1, 8]: 0
Appearance of swelling medium (0–5) [1, 8]: 0
Loss of H2O2 (%/day) [1, 8]: 0.9 %/day
pH after storage [1, 8]: 5.63
%-point H2O2 after storage [1, 9]: 0.58 %-point
Appearance of catheter (0–5; 0 = perfect, 5 = unacceptable) [1, 9]: 0
Appearance of swelling medium (0–5) [1, 9]: 0
Loss of H2O2 (%/day) [1, 9]: 4.0 %/day
pH after storage [1, 9]: 5.86
%-point H2O2 after storage [1, 10]: 1.25 %-point
Appearance of catheter (0–5; 0 = perfect, 5 = unacceptable) [1, 10]: 1
Appearance of swelling medium (0–5) [1, 10]: 0
Loss of H2O2 (%/day) [1, 10]: 3.2 %/day
pH after storage [1, 10]: 5.13
%-point H2O2 after storage [1, 11]: 1.41 %-point
Appearance of catheter (0–5; 0 = perfect, 5 = unacceptable) [1, 11]: 0
Appearance of swelling medium (0–5) [1, 11]: 0
Loss of H2O2 (%/day) [1, 11]: 1.7 %/day
pH after storage [1, 11]: 5.71
%-point H2O2 after storage [1, 12]: 0.02 %-point
Appearance of catheter (0–5; 0 = perfect, 5 = unacceptable) [1, 12]: 3
Appearance of swelling medium (0–5) [1, 12]: 0
Loss of H2O2 (%/day) [1, 12]: 14.1 %/day
pH after storage [1, 12]: 3.46
%-point H2O2 after storage [1, 13]: 1.13 %-point
Appearance of catheter (0–5; 0 = perfect, 5 = unacceptable) [1, 13]: 0
Appearance of swelling medium (0–5) [1, 13]: 0
Loss of H2O2 (%/day) [1, 13]: 4.2 %/day
pH after storage [1, 13]: 6.28
Calculated degraded amount of H2O2 (%) after 2 years storage at 23° C. ([2]; 0 mM citrate, pH 5.5): 22.4%
Calculated degraded amount of H2O2 (%) after 2 years storage at 23° C. ([2]; 0 mM citrate, pH 7): 60.2%
Calculated degraded amount of H2O2 (%) after 2 years storage at 23° C. ([2]; 10 mM citrate, pH 4): 47.6%
Calculated degraded amount of H2O2 (%) after 2 years storage at 23° C. ([2]; 10 mM citrate, pH 5.5): 63.0%
Calculated degraded amount of H2O2 (%) after 2 years storage at 23° C. ([2]; 10 mM citrate, pH 7): 277.1%
Calculated degraded amount of H2O2 (%) after 2 years storage at 23° C. ([2]; 25 mM citrate, pH 5.5): 74.2%
Calculated degraded amount of H2O2 (%) after 2 years storage at 23° C. ([2]; 25 mM citrate, pH 7): 201.5%
H2O2 loss per day (%) ([3]; initial 1% H2O2, 0% PVP C-15, 50 kGy): 0.088 ± 0.029%
H2O2 loss per day (%) ([3]; initial 1% H2O2, 6% PVP C-15, 50 kGy): 0.167 ± 0.048%
speed of effect compared to a range of other anti-microbial agents [4]: rapid
bacterial survival rate, Mean ([5]; 0.016% hydrogen peroxide): 49.8
bacterial survival rate, Mean ([5]; 0.031% hydrogen peroxide): 38.1
bacterial survival rate, Mean ([5]; 0.063% hydrogen peroxide): 27.8
bacterial survival rate, Mean ([5]; 0.125% hydrogen peroxide): 14.5
bacterial survival rate, Mean ([5]; 0.250% hydrogen peroxide): 9.1
bacterial survival rate, Mean ([5]; 0.500% hydrogen peroxide): 0.2
bacterial survival rate, Mean ([5]; 1.000% hydrogen peroxide): 0.0
surviving bacteria, Mean (% of control) ([5]; exposure time 5 min): 37 % of control
surviving bacteria, Mean (% of control) ([5]; exposure time 10 min): 17 % of control
surviving bacteria, Mean (% of control) ([5]; exposure time 15 min): 6 % of control
calculated amount of degraded H2O2 after 2 years of storage at 23° C. ([6]; pH 4): 15.7%
calculated amount of degraded H2O2 after 2 years of storage at 23° C. ([6]; pH 5.5): 31.7%
calculated amount of degraded H2O2 after 2 years of storage at 23° C. ([6]; pH 7): 54.7%
